The numbers were not newly measured in US20190151246A1, “DELAYED-RELEASE TABLETS OF METHYLPHENIDATE” (PRODUCTS & TECHNOLOGY, S.L., priority 2016, published 2019), which cites them from elsewhere.

By half-life is commonly meant how long it takes for the measured level to halve.

As for `COC(=O)C(c1ccccc1)C1CCCCN1` (centres unmarked) [methylphenidate, methyl 2-phenyl-2-(2-piperidyl)acetate], the half-life in children result (children, estimated) is listed as “approximately 2.5 hours”. In addition, for the setting “in vivo”, the half-life was 2 to 4 h.
